Common to all, as to assay type: biochemical
For one assay, the target named is human stromelysin (Sln) (Homo sapiens, UniProt P08254). The assay can be described thus: In vitro MMP inhibition assay (hydrolysis of fluorogenic MCA peptide substrate), stromelysin. The settings on record: Table 1; Ki,app; MCA peptide substrate 10 μM, 37° C., pH 7.5, 2% DMSO; read-out: Sin Ki. The protocol: The catalytic domain of human stromelysin (Sln) was obtained by expression and purification of a C-terminally truncated prostromelysin-1 from E. coli host BL21 (see Marcy et al. Biochem., 1991, 30, 6476). The subsequent activation of the mature form (Sln) was completed with 2 mM APMA for 1 hour at 37° C., followed by separation using a sizing column.
(§1) Assays were performed in assay buffer (50 mM Tricine pH 7.5, 200 mM sodium chloride, 10 mM calcium chloride, 0.5 mM zinc acetate containing 2% dimethyl sulfoxide (DMSO)) once the substrate and inhibitor were diluted into it. Stock solutions of inhibitors were prepared in 100% DMSO. Stock solutions of the substrate were prepared in 100% DMSO at a concentration of 6 mM.
(§2) The assay method was based on the hydrolysis of MCA-Pro-Leu-Gly-Leu-DPA-Ala-Arg-NH2 (American Peptide Co.) at 37° C. (see Knight, C. G. et al., FEBS, 1992, 296, 263-266). The fluorescence changes were monitored with a Perkin-Elmer LS-50B fluorimeter using an excitation wavelength of 328 nm and an emission wavelength of 393 nm. The substrate concentration used in the assays was 10 μM. The inhibitor was diluted into the assays from a solution in 100% DMSO, and controls substituted an equal volume of DMSO so that the final DMSO concentration from inhibitor and substrate dilution in all assays was 2%. […] Proper determination of steady-state rates of substrate cleavage required assay lengths of 60 minutes to allow for complete equilibration of the enzyme-inhibitor complex.
(§3) The Km for the MCA peptide substrate with the matrix metalloproteinases is quite high and exceeds its solubility under assay conditions. Consequently, the apparent Ki (Ki,app) was determined to describe the strength of inhibition. However, in this case, Ki,app would be essentially equal to Ki since [S]<<Km. For the determination of Ki,app, the concentration of the inhibitor was varied at a constant and low concentration of substrate and the steady-state rates of fluorescence change determined. In most cases absorptive quench due to the presence of ligand was not observed. For slow-binding inhibitors, onset of inhibition curves were collected for at least 45 minutes so that equilibrium was established. Steady-state rates of fluorescence change were obtained by fitting a curve to an equation for a single exponential decay containing a linear phase. The fitted value of the linear phase was taken as the steady-state rate. The steady-state rates were fitted to the Michaelis equation describing competitive inhibition by non-linear methods. Data resulting from tight-binding inhibition was analyzed, and Ki,app determined by fitting the data to the tight-binding equation of Morrison (Biochem. Biophys. Acta, vol. 185, pp. 269-286 (1969)) by non-linear methods.
(§4) All Ki values are in nM units.

For assay [1], the target named is T1, human collagenase-3 (Coll3) (Homo sapiens, UniProt P45452).
T1 construct: catalytic domain liberated with APMA
Nature of the assay: In vitro MMP inhibition assay (hydrolysis of fluorogenic MCA peptide substrate), collagenase-3. Particulars: Table 1; Ki,app; MCA peptide substrate 10 μM, 37° C., pH 7.5, 2% DMSO. The protocol:
The propeptide and catalytic domain of human collagenase-3 (Coll3) was expressed in E. coli as an N-terminal fusion protein with ubiquitin. After purification of the fusion from inclusion bodies, the catalytic domain was liberated by treatment with 2 mM APMA at room temperature overnight. Final purification was completed using copper chelate chromatography.
as §1, §2, §3, §4

The target of assay [2] is human progelatinase A (GelA) (Homo sapiens, UniProt P08253). The assay can be described thus: In vitro MMP inhibition assay (hydrolysis of fluorogenic MCA peptide substrate), gelatinase A. Particulars: Table 1; Ki,app; MCA peptide substrate 10 μM, 37° C., pH 7.5, 2% DMSO; read-out: Gel A. The protocol: The catalytic and fibronectin-like portion of human progelatinase A (GelA) was expressed as a fusion protein with ubiquitin in E. Coli. Assays were carried out on autocatalytically activated material.
as §1, §2, §3, §4

The target in assay [3] is T2, human collagenase-1 (HFC) (Homo sapiens, UniProt P03956).
T2 sequence (P03956 100-269 limits assumed): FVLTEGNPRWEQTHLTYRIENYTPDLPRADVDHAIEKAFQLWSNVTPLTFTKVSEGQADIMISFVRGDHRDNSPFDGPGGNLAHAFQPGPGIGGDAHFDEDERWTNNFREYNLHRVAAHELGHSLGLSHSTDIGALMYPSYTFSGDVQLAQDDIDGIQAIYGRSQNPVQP
Nature of the assay: In vitro MMP inhibition assay (hydrolysis of fluorogenic MCA peptide substrate), fibroblast collagenase-1. Particulars: Table 1; Ki,app; MCA peptide substrate 10 μM, 37° C., pH 7.5, 2% DMSO. The protocol:
The catalytic domain of human collagenase-1 was expressed as a fusion protein with ubiquitin in E. coli (see Gehring, E. R., J Biol. Chem., 1995, 270, 22507). After purification of the fusion protein, the fibroblast collagenase-1 catalytic domain (HFC) was released either by treatment with purified, active stromelysin-1 (1:50 wlw ratio), which generated nearly 100% N-terminal Phe1, or by autoprocessing the concentrated collagenase-1 fusion and then incubating at 37° C. for 1 hour. Final purification was completed using zinc chelate chromatography.
as §1, §2, §3, §4

This passage reports Ki results from patent publication US5985900A, “Metalloproteinase inhibitors, pharmaceutical compositions containing them and their pharmaceutical uses” (Agouron Pharmaceuticals, Inc., priority 1998, dated 1999).

Chain of human progelatinase A (GelA) (P08253 110-446 limits assumed): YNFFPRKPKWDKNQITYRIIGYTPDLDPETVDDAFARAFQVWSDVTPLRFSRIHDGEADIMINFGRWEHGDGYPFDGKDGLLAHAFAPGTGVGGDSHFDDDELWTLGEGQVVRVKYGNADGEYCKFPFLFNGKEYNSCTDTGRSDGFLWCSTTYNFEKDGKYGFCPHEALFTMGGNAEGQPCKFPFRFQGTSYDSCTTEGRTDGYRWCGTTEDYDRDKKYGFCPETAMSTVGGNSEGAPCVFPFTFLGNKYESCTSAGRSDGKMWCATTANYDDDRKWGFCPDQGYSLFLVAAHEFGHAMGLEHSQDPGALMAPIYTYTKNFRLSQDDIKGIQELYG
Chain of human stromelysin (Sln) (P08254 100-272 limits assumed): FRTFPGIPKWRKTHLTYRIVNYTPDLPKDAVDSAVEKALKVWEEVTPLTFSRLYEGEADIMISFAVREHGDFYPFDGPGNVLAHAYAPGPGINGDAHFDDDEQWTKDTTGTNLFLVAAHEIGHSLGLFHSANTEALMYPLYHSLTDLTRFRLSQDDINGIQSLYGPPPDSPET

`CC(C)(SCc1ccncc1)[C@@H](NS(=O)(=O)c1ccc(Oc2ccc(F)cc2)cc1)C(=O)O` [Example 3f, N-[4-(4-Fluorophenoxy)benzenesulfonyl]--S--[(pyrid-4-yl)methyl]-D-penicillamine]: the figures for the Ki (at human stromelysin (Sln); in assay [1]; in assay [2]) were 6300 nM, 829 nM and 311 nM, respectively.

On to `CC(C)([C@@H](NS(=O)(=O)c1ccc(Oc2ccc(Br)cc2)cc1)C(=O)NO)[S+]([O-])Cc1ccccn1` (mixture of isomers) [Example 11, 2(S), S(R/S)--N-hydroxy-3-methyl-3-(pyrid-2-yl) methylsulfinyl-2-[(4-(4-bromophenoxy)benzenesulfonyl)amino]butanamide], for which the Ki at human stromelysin (Sln) was 1 nM; in assay [1], 0.028 nM; in assay [2] it was 0.049 nM; in assay [3] it was 24 nM.

For `CC(C)(SCc1ccccn1)[C@@H](NS(=O)(=O)c1ccc(Oc2ccc(F)cc2)cc1)C(=O)NO` [Example 9h, 2(S)--N-hydroxy-3-methyl-3-(pyrid-2-yl)methylsulfanyl-2-[(4-(4-fluorophenoxy)benzenesulfonyl)amino]butanamide], the Ki on human stromelysin (Sln) is 0.84 nM; in assay [1], 0.057 nM; in assay [2] it was 0.031 nM; in assay [3], 17 nM.

Consider `CC(C)(C)[C@@H](NS(=O)(=O)c1ccc(Oc2ccccc2)cc1)C(=O)O` [Example 3r, N-[4-Phenoxybenzenesulfonyl]-D-tert-leucine], for which the Ki worked out at 12700 nM on human stromelysin (Sln), 616 nM in assay [1] and 104 nM in assay [2].

With `CC(C)(C)[C@@H](NS(=O)(=O)c1ccc(Oc2ccc(Cl)cc2)cc1)C(=O)O` [Example 3p, N-[4-(4-Chlorophenoxy)benzenesulfonyl]-D-tert-leucine], the Ki on human stromelysin (Sln) turned out to be 9500 nM; in assay [1] it was 203 nM; in assay [2], 62 nM.

For `Cc1cc(CSC(C)(C)[C@@H](NS(=O)(=O)c2ccc(Oc3ccc(F)cc3)cc2)C(=O)O)no1` [Example 3l, N-[4-(4-Fluorophenoxy)benzenesulfonyl]--S--[(5-methylisoxazol-3-yl)methyl]-D-penicillamine], the Ki at human stromelysin (Sln) came out at 5100 nM; in assay [1], 248 nM; in assay [2], 35.3 nM.

With `CC(C)(C)OC(=O)CSC(C)(C)[C@@H](NS(=O)(=O)c1ccc(Oc2ccc(F)cc2)cc1)C(=O)NO` [Example 9j, 2(S)--N-hydroxy-3-methyl-3-(t-butoxycarbonyl)methylsulfanyl-2-[(4-(4-fluorophenoxy)benzenesulfonyl)amino]butanamide], the Ki on human stromelysin (Sln) turned out to be 1.6 nM; in assay [1], 0.091 nM; in assay [2] it was 0.048 nM; in assay [3], 33 nM.

Turning to `CC(C)(SCc1cccnc1)[C@@H](NS(=O)(=O)c1ccc(Oc2ccc(F)cc2)cc1)C(=O)O` [Example 3e, N-[4-(4-Fluorophenoxy)benzenesulfonyl]--S--[(pyrid-3-yl)methyl]-D-penicillamine], the figures for the Ki (at human stromelysin (Sln); in assay [1]; in assay [2]) were 6900 nM, 1100 nM and 517 nM, respectively.

In the case of `CSC(C)(C)[C@@H](NS(=O)(=O)c1ccc(Oc2ccccc2)cc1)C(=O)O` [Example 6a, S-Methyl--N--[4-(phenoxy)benzenesulfonyl]-D-penicillamine], the values for the Ki (at human stromelysin (Sln); in assay [1]; in assay [2]) were 4850 nM, 661 nM and 351 nM, respectively.

Consider `CC(C)(SCc1ccccc1)[C@@H](NS(=O)(=O)c1ccc(Oc2ccccc2)cc1)C(=O)O` [Example 3m, S-Benzyl--N--[4-phenoxybenzenesulfonyl]-D-penicillamine], for which the Ki amounted to 1000 nM on human stromelysin (Sln), 907 nM in assay [1] and 46 nM in assay [2].

Consider `CC(C)(SCc1nccn1Cc1ccccc1)[C@@H](NS(=O)(=O)c1ccc(Oc2ccc(Br)cc2)cc1)C(=O)O` [Example 3b, N-[4-(4-Bromophenoxy)benzenesulfonyl]--S--[(1-benzyl-1H-imidazol-2-yl)methyl]-D-penicillamine], for which the Ki at human stromelysin (Sln) is 558 nM; in assay [1], 108 nM; in assay [2] it was 1.8 nM.

As to `CC(C)(SCC(=O)O)[C@@H](NS(=O)(=O)c1ccc(Oc2ccc(F)cc2)cc1)C(=O)NO` [Example 12, 2(S)--N-hydroxy-3-methyl-3-(carboxymethyl)sulfanyl-2-[(4-(4-fluorophenoxy)benzenesulfonyl)amino]butanamide], the Ki on human stromelysin (Sln) was found to be 5.7 nM; in assay [1] it was 0.27 nM; in assay [2], 0.53 nM.

Turning to `Cc1cc(CSC(C)(C)[C@@H](NS(=O)(=O)c2ccc(Oc3ccc(Br)cc3)cc2)C(=O)O)no1` [Example 3k, N-[4-(4-Bromophenoxy)benzenesulfonyl]--S--[(5-methylisoxazol-3-yl)-methyl]-D-penicillamine], the Ki at human stromelysin (Sln) is 2600 nM; in assay [1], 209 nM; in assay [2] it was 4.2 nM.

`CC(C)(SCc1ccccn1)[C@@H](NS(=O)(=O)c1ccc(Oc2ccc(-c3ccoc3)cc2)cc1)C(=O)O` [Example 4e, N-[4-(4-(Furan-3-yl)phenoxy)benzenesulfonyl]--S--[(pyrid-2-yl)methyl]-D-penicillamine]: the Ki amounted to 680 nM on human stromelysin (Sln), 153 nM in assay [1] and 7.1 nM in assay [2].

In the case of `Cc1cc(CSC(C)(C)[C@@H](NS(=O)(=O)c2ccc(Sc3ccncc3)cc2)C(=O)O)no1` [Example 4c, S--[(5-Methylisoxazol-3-yl)methyl]--N--[4(pyrid-4-yl)sulfanylbenzenesulfonyl]-D-penicillamine], the values for the Ki (on human stromelysin (Sln); in assay [1]; in assay [2]) were 97000 nM, 7000 nM and 890 nM, respectively.

Regarding `CC(C)(SCC(=O)O)[C@@H](NS(=O)(=O)c1ccc(Oc2ccc(F)cc2)cc1)C(=O)O` [Example 5, S-Carboxymethyl--N--[4-(4-fluorophenoxy)benzenesulfonyl]-D-penicillamine], the Ki turned out to be 27300 nM at human stromelysin (Sln), 1620 nM in assay [1] and 1550 nM in assay [2].

On to `CC(C)(SCc1ccccc1)[C@@H](NS(=O)(=O)c1ccc(Oc2ccncc2)cc1)C(=O)O` [Example 4a, S-Benzyl--N--[4-(pyrid-4-yl)oxybenzenesulfonyl]-D-penicillamine], for which the Ki was found to be 7700 nM at human stromelysin (Sln), 360 nM in assay [1] and 193 nM in assay [2].

Take `CC(C)(SCc1ccccn1)[C@@H](NS(=O)(=O)c1ccc(Oc2ccc(I)cc2)cc1)C(=O)O` [Example 3i, N-[4-(4-Iodophenoxy)benzenesulfonyl]--S--[(pyrid-2-yl)methyl]-D-penicillamine]: the figures for the Ki (at human stromelysin (Sln); in assay [1]; in assay [2]) were 1180 nM, 196 nM and 3.3 nM, respectively.

With `CC(C)(C)OC(=O)CSC(C)(C)[C@@H](NS(=O)(=O)c1ccc(Oc2ccc(F)cc2)cc1)C(=O)O` [Example 3n, S--(t-Butoxycarbonyl)methyl--N--[4-(4-fluorophenoxy)benzenesulfonyl]-D-penicillamine], the Ki on human stromelysin (Sln) was 5700 nM; in assay [1] it was 574 nM; in assay [2], 183 nM.
